Assay [1] relates to HBV core DNA. The experiment in a line: HBV core DNA synthesis: Southern blot of NC-associated core DNA from transfected cells. Type of assay: cell-based, Hepatitis B virus. The source says:
(§1) FIG. 1. Effects of HBc linker mutations on cccDNA levels and NC stability. HBV replication plasmids expressing either the wild type (wt) HBc or indicated linker mutants were transfected into human hepatoma cells (HepG2). HBV DNA associated with NCs (core DNA) (lanes 1-8), or protein-free DNA (PF-DNA) (i.e., those DNA species no longer covalently attached to the viral RT protein and mostly released from NCs) (lanes 9-12) was extracted from the transfected cells and analyzed by Southern blot analysis using a radio-labeled HBV DNA probe. The core DNA shown in lanes 5-8 was extracted following prior treatment of the cell lysate with an exogenous DNase, which removes core DNA that was not protected by the capsid (i.e., from destabilized NCs). RC, rcDNA; CCC, cccDNA; SS, single stranded DNA—a reverse transcription intermediate during the synthesis of rcDNA from pgRNA.
FIG. 4. HBc linker mutants increased HBV CCC DNA by 2-30 fold. Data are shown for LC (S141T/V148I/V149I), S141A, S141D, S141R, L143A, L143I, E145D, and TT146/147AA (a combination of T146A and T147A; aka T146A/T147A).

The test system of assay [2] is HBV cccDNA. The experiment in a line: HBV cccDNA levels: Southern blot of protein-free DNA from HepG2 cells transfected with HBV replication plasmids. Type of assay: cell-based, Hepatitis B virus.
From the text: as §1
FIG. 3. Effects of HBc linker and envelope mutations on cccDNA levels. […] HBV DNA associated with NCs (core DNA; A), or protein-free DNA (PF-DNA; B) (i.e., those DNA species no longer covalently attached to the viral RT protein and mostly released from NCs) was extracted from the transfected cells and analyzed by Southern blot analysis using a radio-labeled HBV DNA probe. […]

Take L140A [Mutant L140A]: the “HBV core DNA synthesis” value in assay [1] is recorded as “blocked HBV core DNA synthesis”. In addition, the cccDNA formation entry in assay [2] is listed as “no cccDNA was made”.
